In this test the target is T1, AXL (human catalytic domain) (Homo sapiens, UniProt P30530).
T1 construct: purchased Upstate Ltd. 14-512
T1 sequence (P30530 473-894): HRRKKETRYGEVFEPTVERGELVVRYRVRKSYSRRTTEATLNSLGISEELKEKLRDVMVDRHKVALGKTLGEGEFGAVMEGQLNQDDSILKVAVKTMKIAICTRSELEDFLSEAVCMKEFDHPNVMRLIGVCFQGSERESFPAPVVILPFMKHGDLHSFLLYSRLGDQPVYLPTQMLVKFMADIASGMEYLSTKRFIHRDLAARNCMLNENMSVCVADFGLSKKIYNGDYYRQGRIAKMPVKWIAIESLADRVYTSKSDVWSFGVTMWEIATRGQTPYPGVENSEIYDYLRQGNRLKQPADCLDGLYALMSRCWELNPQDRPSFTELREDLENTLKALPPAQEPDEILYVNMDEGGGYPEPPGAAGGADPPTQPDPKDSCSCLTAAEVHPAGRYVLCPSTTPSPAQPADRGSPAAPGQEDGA
The test is described as follows: AXL (human catalytic domain) Enzyme Activity Assay (IMAP fluorescence polarisation). To be noted: further data set (WW-001 through WW-169, XX-001 through XX-469, YY-001 through YY-016, ZZ-001 through ZZ-003); 150 μM ATP. The test is classed as biochemical. An outline of the steps: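 Recombinant human AXL isoform 1 (aa473-894; final 15 nM) phosphorylated 100 nM fluorescein-CSK-tide with 150 μM ATP (KM) in HEPES pH 7.0/MgCl2/DTT buffer for 60 min at room temperature. IMAP fluorescence polarisation read after overnight binding; IC50 from 10-point 4-parameter logistic fits.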

Each structure is given as a SMILES string.

By IC50 is commonly meant the concentration needed to halve the response being measured. The molecule `CC(C)CC(=O)NCc1cccc(-c2cccc3nc(Nc4ccc(OCCN5CCCC5)cc4)nn23)c1` [XX-325, 3-Methyl-N-(3-{2-[4-(2-pyrrolidin-1-yl-ethoxy)-phenylamino]-[1,2,4]triazolo[1,5-a]pyridin-5-yl}-benzyl)-butyramide] yielded a half-inhibitory concentration (IC50) of 100 to 1000 nM.

`CCN(CC)CCN(C)c1cc(Nc2nc3cccc(-c4ccc(OC)cc4)n3n2)ccn1` [XX-326] showed an IC50 of at most 100 nM.

With `Nc1nnc(SCCn2cc(-c3cccc4nc(Nc5ccc(OCCN6CCCC6)cc5)nn34)cn2)[nH]1` [XX-327, (5-{1-[2-(5-Amino-4H-[1,2,4]triazol-3-ylsulfanyl)-ethyl]-1H-pyrazol-4-yl}-[1,2,4]triazolo[1,5-a]pyridin-2-yl)-[4-(2-pyrrolidin-1-yl-ethoxy)-phenyl]-amine], the 50% inhibitory concentration (IC50) lay in the range of 1000 to 10000 nM.

In turn, `C=Cn1cc(-c2cccc3nc(Nc4ccc(OCCN5CCCC5)cc4)nn23)cn1` [XX-328] displayed a concentration for half-maximal inhibition (IC50) of 100 to 1000 nM.

Regarding `CCN(CC)CCCOc1ccc(Nc2nc3cccc(-c4ccc5c(c4)OCCO5)n3n2)cc1` [XX-329], the IC50 fell in the range of 100 to 1000 nM.

Take `Clc1cccc(COc2cccc(-c3cccc4nc(Nc5ccc(OCCN6CCCC6)cc5)nn34)c2)c1` [XX-330]: the IC50 lay in the range of 1000 to 10000 nM.

Take `CC(C)Oc1cccc(-c2cccc3nc(Nc4ccc(OCCN5CCCC5)cc4)nn23)c1` [XX-331]: the IC50 fell in the range of 1000 to 10000 nM.

Molecule `c1cc(OCc2ccncc2)cc(-c2cccc3nc(Nc4ccc(OCCN5CCCC5)cc4)nn23)c1` [XX-332] returned a 50% inhibitory concentration (IC50) of 100 to 1000 nM.

For `COc1ccc(OC)c(-c2cccc3nc(Nc4ccc(OCCN5CCCC5)cc4)nn23)c1` [XX-333], the IC50 fell in the range of 1000 to 10000 nM.

`COc1cc(-c2cccc3nc(Nc4ccc(OCCN5CCCC5)cc4)nn23)ccc1F` [XX-334] displayed an IC50 of 100 to 1000 nM.

In turn, `COc1cccc(COc2cccc(-c3cccc4nc(Nc5ccc(OCCN6CCCC6)cc5)nn34)c2)c1` [XX-335] showed an IC50 of 100 to 1000 nM.

`Clc1ccc(COc2cccc(-c3cccc4nc(Nc5ccc(OCCN6CCCC6)cc5)nn34)c2)cc1` [XX-336] had an IC50 of 1000 to 10000 nM.

Take `CCOc1cccc(-c2cccc3nc(Nc4ccc(OCCN5CCCC5)cc4)nn23)c1` [XX-337]: the IC50 lay in the range of 100 to 1000 nM.

In the case of `COc1ccccc1COc1cccc(-c2cccc3nc(Nc4ccc(OCCN5CCCC5)cc4)nn23)c1` [XX-338], the IC50 was 1000 to 10000 nM.

In turn, `Clc1ccccc1COc1cccc(-c2cccc3nc(Nc4ccc(OCCN5CCCC5)cc4)nn23)c1` [XX-339] came in with an IC50 of 1000 to 10000 nM.

On to `COc1ccc(COc2cccc(-c3cccc4nc(Nc5ccc(OCCN6CCCC6)cc5)nn34)c2)cc1` [XX-340], for which the half-maximal inhibitory concentration (IC50) is 100 to 1000 nM.

In turn, `ClCc1cccc(-c2cccc3nc(Nc4ccc(OCCN5CCCC5)cc4)nn23)c1` [XX-341, [5-(3-Chloromethyl-phenyl)-[1,2,4]triazolo[1,5-a]pyridin-2-yl]-[4-(2-pyrrolidin-1-yl-ethoxy)-phenyl]-amine] had an IC50 of 100 to 1000 nM.

`NC(=O)Cn1cc(-c2cccc3nc(Nc4ccc(OCCN5CCCC5)cc4)nn23)cn1` [XX-342]: the IC50 lay within 1000 to 10000 nM.

`CCCCCn1cc(-c2cccc3nc(Nc4ccc(OCCN5CCCC5)cc4)nn23)cn1` [XX-343] registered an IC50 of 100 to 1000 nM.

The molecule `c1cc(-c2cnn(CC3CCCO3)c2)n2nc(Nc3ccc(OCCN4CCCC4)cc3)nc2c1` (stereo not shown) [XX-344] came in with a concentration for half-maximal inhibition (IC50) of 100 to 1000 nM.

With `CC(C)CCCn1cc(-c2cccc3nc(Nc4ccc(OCCN5CCCC5)cc4)nn23)cn1` [XX-345], the IC50 was 100 to 1000 nM.

The molecule `O=C(Cn1cc(-c2cccc3nc(Nc4ccc(OCCN5CCCC5)cc4)nn23)cn1)c1ccccc1` [XX-346] came in with a half-maximal inhibitory concentration (IC50) of 100 to 1000 nM.

`c1cc(-c2ccc3cc[nH]c3c2)n2nc(Nc3ccc(OCCCN4CCCCC4)cc3)nc2c1` [XX-347] registered an IC50 of 100 to 1000 nM.

Regarding `O=C(NCc1cccc(-c2cccc3nc(Nc4ccc(OCCN5CCCC5)cc4)nn23)c1)Nc1cccc(Cl)c1` [XX-348, 1-(3-Chloro-phenyl)-3-(3-{2-[4-(2-pyrrolidin-1-yl-ethoxy)-phenylamino]-[1,2,4]triazolo[1,5-a]pyridin-5-yl}-benzyl)-urea], the IC50 was 1000 to 10000 nM.

Take `COCCn1cc(-c2cccc3nc(Nc4ccc(OCCN5CCCC5)cc4)nn23)cn1` [XX-349]: the half-maximal inhibitory concentration (IC50) lay in the range of 100 to 1000 nM.

As to `Cc1ccc(CCn2cc(-c3cccc4nc(Nc5ccc(OCCN6CCCC6)cc5)nn34)cn2)cc1` [XX-350], the IC50 was 100 to 1000 nM.

`N#CCCn1cc(-c2cccc3nc(Nc4ccc(OCCN5CCCC5)cc4)nn23)cn1` [XX-351] yielded an IC50 of 100 to 1000 nM.

As to `Clc1cccc(Cn2cc(-c3cccc4nc(Nc5ccc(OCCN6CCCC6)cc5)nn34)cn2)c1` [XX-352], the IC50 lay within 100 to 1000 nM.

The molecule `CC(C)CCn1cc(-c2cccc3nc(Nc4ccc(OCCN5CCCC5)cc4)nn23)cn1` [XX-353] gave a half-inhibitory concentration (IC50) of at most 100 nM.

With `Clc1ccccc1Cn1cc(-c2cccc3nc(Nc4ccc(OCCN5CCCC5)cc4)nn23)cn1` [XX-354], the IC50 was 100 to 1000 nM.

Molecule `COc1ccc(-c2cccc3nc(Nc4ccc(N(C)C(=O)C(C)N5CCCC5)cc4)nn23)cc1` (stereo not shown) [XX-355] gave a concentration for half-maximal inhibition (IC50) of 100 to 1000 nM.

In turn, `c1cc(-c2cnn(CC3CCCCC3)c2)n2nc(Nc3ccc(OCCN4CCCC4)cc3)nc2c1` [XX-356] came in with an IC50 of 100 to 1000 nM.

`CCN(CC)CCOc1cc(Nc2nc3cccc(-c4cccc(CO)c4)n3n2)ccn1` [XX-357] yielded an IC50 of 100 to 1000 nM.

For the molecule `CCN(CC)CCOc1cc(Nc2nc3cccc(-c4ccc5c(c4)OCO5)n3n2)ccn1` [XX-358], the half-maximal inhibitory concentration (IC50) was 100 to 1000 nM.

Molecule `CCN(CC)CCOc1cc(Nc2nc3cccc(-c4ccc(OC)c(F)c4)n3n2)ccn1` [XX-359] registered an IC50 of at most 100 nM.

`CCN(CC)CCOc1cc(Nc2nc3cccc(-c4ccc(OC(C)C)cc4)n3n2)ccn1` [XX-360] had an IC50 of at most 100 nM.

`CCN(CC)CCOc1cc(Nc2nc3cccc(-c4ccc(OC)cc4)n3n2)ccn1` [XX-361]: the half-maximal inhibitory concentration (IC50) is at most 100 nM.

`CCN(CC)CCOc1cc(Nc2nc3cccc(-c4ccc5[nH]ccc5c4)n3n2)ccn1` [XX-363]: the concentration for half-maximal inhibition (IC50) is at most 100 nM.

In the case of `CCN(CC)CCOc1cc(Nc2nc3cccc(-c4cc5ccccc5o4)n3n2)ccn1` [XX-364], the half-inhibitory concentration (IC50) was 100 to 1000 nM.

`Cc1ccc(-c2cccc3nc(Nc4cccc(C(=O)NCCN5CCCC5)c4)nn23)cc1F` [XX-365] came in with an IC50 of 100 to 1000 nM.

The molecule `FC(F)(F)Oc1cccc(Cn2cc(-c3cccc4nc(Nc5ccc(OCCN6CCCC6)cc5)nn34)cn2)c1` [XX-366] registered an IC50 of 100 to 1000 nM.

As for `Fc1cccc(Cn2cc(-c3cccc4nc(Nc5ccc(OCCN6CCCC6)cc5)nn34)cn2)c1` [XX-367], the IC50 is 100 to 1000 nM.

`COc1ccc(-c2cccc3nc(Nc4ccc(N(C)C(=O)C(C)N5CCOCC5)cc4)nn23)cc1` (stereo not shown) [XX-368] registered an IC50 of 100 to 1000 nM.

For the molecule `COc1cccc(Cn2cc(-c3cccc4nc(Nc5ccc(OCCN6CCCC6)cc5)nn34)cn2)c1` [XX-369], the half-inhibitory concentration (IC50) lay in the range of 100 to 1000 nM.

On to `Cc1cccc(S(=O)(=O)NCc2cccc(-c3cccc4nc(Nc5ccc(OCCN6CCCC6)cc5)nn34)c2)c1` [XX-370], for which the half-maximal inhibitory concentration (IC50) fell in the range of 100 to 1000 nM.

For `O=C(NCc1cccc(-c2cccc3nc(Nc4ccc(OCCN5CCCC5)cc4)nn23)c1)Nc1ccccc1` [XX-371], the half-maximal inhibitory concentration (IC50) lay in the range of 100 to 1000 nM.

Take `CC(C)(C)NC(=O)NCc1cccc(-c2cccc3nc(Nc4ccc(OCCN5CCCC5)cc4)nn23)c1` [XX-372]: the IC50 fell in the range of 100 to 1000 nM.

As for `CC(C)NC(=O)NCc1cccc(-c2cccc3nc(Nc4ccc(OCCN5CCCC5)cc4)nn23)c1` [XX-373], the half-inhibitory concentration (IC50) lay within 100 to 1000 nM.

Molecule `CCS(=O)(=O)n1cc(-c2cccc3nc(Nc4ccc(OCCN5CCCC5)cc4)nn23)cn1` [XX-374] returned an IC50 of at most 100 nM.

Take `O=S(=O)(C1CC1)n1cc(-c2cccc3nc(Nc4ccc(OCCN5CCCC5)cc4)nn23)cn1` [XX-375]: the IC50 is at most 100 nM.

With `CC(=O)Nc1ccc(S(=O)(=O)n2cc(-c3cccc4nc(Nc5ccc(OCCN6CCCC6)cc5)nn34)cn2)cc1` [XX-376], the half-maximal inhibitory concentration (IC50) lay in the range of 100 to 1000 nM.

As to `Cc1cccc(S(=O)(=O)n2cc(-c3cccc4nc(Nc5ccc(OCCN6CCCC6)cc5)nn34)cn2)c1` [XX-377], the half-maximal inhibitory concentration (IC50) was 100 to 1000 nM.

`O=S(=O)(c1ccccc1Cl)n1cc(-c2cccc3nc(Nc4ccc(OCCN5CCCC5)cc4)nn23)cn1` [XX-378] showed an IC50 of at most 100 nM.

`CCCCCCS(=O)(=O)n1cc(-c2cccc3nc(Nc4ccc(OCCN5CCCC5)cc4)nn23)cn1` [XX-379] had a 50% inhibitory concentration (IC50) of 100 to 1000 nM.

On to `CCCS(=O)(=O)n1cc(-c2cccc3nc(Nc4ccc(OCCN5CCCC5)cc4)nn23)cn1` [XX-380], for which the IC50 was at most 100 nM.

`O=S(=O)(C1CCCCC1)n1cc(-c2cccc3nc(Nc4ccc(OCCN5CCCC5)cc4)nn23)cn1` [XX-381] yielded a concentration for half-maximal inhibition (IC50) of at most 100 nM.

In turn, `O=S(=O)(CCC(F)(F)F)n1cc(-c2cccc3nc(Nc4ccc(OCCN5CCCC5)cc4)nn23)cn1` [XX-382] returned an IC50 of at most 100 nM.

In the case of `CCC(C)S(=O)(=O)n1cc(-c2cccc3nc(Nc4ccc(OCCN5CCCC5)cc4)nn23)cn1` (stereo not shown) [XX-383], the IC50 was at most 100 nM.

For `CCCCCS(=O)(=O)n1cc(-c2cccc3nc(Nc4ccc(OCCN5CCCC5)cc4)nn23)cn1` [XX-384], the IC50 was 100 to 1000 nM.

Consider `Cc1noc(C)c1S(=O)(=O)n1cc(-c2cccc3nc(Nc4ccc(OCCN5CCCC5)cc4)nn23)cn1` [XX-385], for which the half-inhibitory concentration (IC50) lay within 100 to 1000 nM.

Turning to `COc1ccc(-c2cccc3nc(Nc4ccnc(C(=O)NCCN5CCCC5)c4)nn23)cc1` [XX-386], the 50% inhibitory concentration (IC50) was 1000 to 10000 nM.

The record behind these values is patent US8431596B2 (Cancer Research Technology Limited, priority 2007, dated 2013).
